In assay [1] the test system is EGFR (Del19/T790M/C797S) in H1975-clone #28 cells. Nature of the assay: Cell degradation of EGFR, HTRF assay, H1975-clone #28 cells. To be noted: H1975-clone #28 (Del19/T790M/C797S, homozygous), 16 h treatment; for DC50: HTRF; for Dmax H1975 #28: maximum percentage of inhibition (degradation). The format is cell-based. As to the method:
(§1) BaF3-LTC (L858R/T790M/C797S) cells are treated with compounds diluted in 0.2% DMSO cell culture medium and incubate for 16 h, 37° C., 5% CO2. H1975-#28 cells are treated with compounds diluted in 0.2% DMSO cell culture medium on day 2, incubate for 16 h, 37° C., 5% CO2, the final concentration of compounds in all assay is start with 10 uM, 4-fold dilution, total 8 doses were included.
(§2) After 16 h treatment, add HTRF lysis buffer to each well; seal the plate and incubate 1 hour at room temperature on a plate shaker. Once the cells are lysed, 16 μL of cell lysate are transferred to a PE 384-well HTRF detection plate: 4 μL of pre-mixed HTRF antibodies are added to each well; Cover the plate with a plate sealer, spin 1000 rpm for 1 min, Incubate overnight at room temperature; Read on BMG PheraStar with HTRF protocol (337 nm-665 nm-620 nm).
(§3) The inhibition (degradation) percentage of the compound was calculated by the following equation: […]
(§4) The IC50 (DC50) value of a compound can be obtained by fitting the following equation
(§5) Y=Bottom+(TOP−Bottom)/(1+((IC50/X)^hillslope))
(§6) Wherein, X and Y are known values, and IC50. Hillslope, Top and Bottom are the parameters obtained by fitting with software. Y is the inhibition percentage (calculated from the equation), X is the concentration of the compound; IC50 is the concentration of the compound when the 50% inhibition is reached. The smaller the IC50 value is, the stronger the inhibitory ability of the compound is. Vice versa, the higher the IC50 value is, the weaker the ability the inhibitory ability of the compound is; Hillslope represents the slope of the fitted curve, generally around 1*; Bottom represents the minimum value of the curve obtained by data fitting, which is generally 0%±20%. Top represents the maximum value of the curve obtained by data fitting, which is generally 100%±20%. The experimental data were fitted by calculating and analyzing with Dotmatics data analysis software.
On the technique in general: Time-resolved FRET reads energy transfer from a long-lived donor to a nearby acceptor.

Assay [2] deals with T1, EGFR (L858R/T790M/C797S) in BaF3-LTC cells (Homo sapiens, UniProt P00533, C797S/L858R/T790M).
T1 construct: expressed in transfected cells; host or cells: BaF3-LTC
Description: Cell degradation of EGFR, HTRF assay, BaF3-LTC cells. Format: cell-based. To be noted: 16 h treatment; for DC50: HTRF; for Dmax: maximum percentage of inhibition (degradation). As to the method: as §1, §2, §3, §4, §5, §6

Broadly, the DC50 is the concentration giving 50% degradation. Low readings indicate degradation at low concentration, high ones degradation only at high concentration. As a reminder, the Dmax is the greatest extent of degradation seen. High values mean deep degradation, low ones shallow degradation.

T1 sequence (P00533 25-1210 T790M/C797S/L858R): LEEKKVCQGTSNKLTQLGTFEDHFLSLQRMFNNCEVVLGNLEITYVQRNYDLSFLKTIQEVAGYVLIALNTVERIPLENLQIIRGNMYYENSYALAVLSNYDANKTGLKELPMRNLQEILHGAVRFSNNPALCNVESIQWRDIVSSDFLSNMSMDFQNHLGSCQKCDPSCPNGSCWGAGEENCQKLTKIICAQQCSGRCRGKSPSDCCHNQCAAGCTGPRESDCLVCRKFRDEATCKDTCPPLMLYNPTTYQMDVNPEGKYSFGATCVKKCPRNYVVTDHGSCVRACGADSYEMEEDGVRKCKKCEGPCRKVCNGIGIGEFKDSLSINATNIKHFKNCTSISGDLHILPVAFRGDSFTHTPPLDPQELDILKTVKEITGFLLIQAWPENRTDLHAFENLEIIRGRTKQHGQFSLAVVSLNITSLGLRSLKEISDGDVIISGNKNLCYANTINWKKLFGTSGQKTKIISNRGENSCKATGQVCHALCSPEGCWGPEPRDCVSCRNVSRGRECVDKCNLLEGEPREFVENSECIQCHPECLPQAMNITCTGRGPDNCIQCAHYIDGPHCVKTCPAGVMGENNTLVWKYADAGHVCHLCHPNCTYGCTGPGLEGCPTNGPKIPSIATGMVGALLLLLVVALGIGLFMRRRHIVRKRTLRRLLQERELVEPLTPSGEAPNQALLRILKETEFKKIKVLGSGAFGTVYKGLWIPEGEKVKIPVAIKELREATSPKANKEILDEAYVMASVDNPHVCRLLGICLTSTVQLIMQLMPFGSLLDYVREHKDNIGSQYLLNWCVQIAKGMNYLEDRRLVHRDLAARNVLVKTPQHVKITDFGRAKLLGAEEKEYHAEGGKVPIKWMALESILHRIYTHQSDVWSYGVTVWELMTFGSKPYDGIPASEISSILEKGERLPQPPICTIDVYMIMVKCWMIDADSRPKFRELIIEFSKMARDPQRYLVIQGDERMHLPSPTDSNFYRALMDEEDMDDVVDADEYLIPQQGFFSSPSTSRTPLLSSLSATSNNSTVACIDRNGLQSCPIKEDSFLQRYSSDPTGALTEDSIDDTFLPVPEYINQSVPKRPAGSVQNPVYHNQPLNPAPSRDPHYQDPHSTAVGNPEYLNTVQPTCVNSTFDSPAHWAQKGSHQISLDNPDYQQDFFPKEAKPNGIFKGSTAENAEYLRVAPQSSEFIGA

On to `CCc1cc(Nc2ncc(Br)c(Nc3ccc4nc(C)ccc4c3P3(=O)CCCC3)n2)c(OC)cc1N1CCC(N2CCN(CCc3cccc4c3C(C)(C)C(=O)N4C3CCC(=O)NC3=O)CC2)CC1` (stereo not shown) [Example 73, 3-(4-(2-(4-(1-(4-((5-bromo-4-((2-methyl-5-(1-oxidophospholan-1-yl)quinolin-6-yl)amino)pyrimidin-2-yl)amino)-2-ethyl-5-methoxyphenyl)piperidin-4-yl)piperazin-1-yl)ethyl)-3,3-dimethyl-2-oxoindolin-1-yl)piperidine-2,6-dione], for which, in assay [1], the DC50 was 0.66 nM and the “Dmax H1975 #28” value is 78.13%. In assay [2], this molecule displayed a DC50 of 7.52 nM and a Dmax of 89.9%.

Take `CCc1cc(Nc2ncc(Br)c(Nc3ccccc3P3(=O)CCCC3)n2)c(OC)cc1N1CCC(N2CCN(C(=O)[C@@H]3CCN(c4cc(F)c(C5CCC(=O)NC5=O)c(F)c4)C3)CC2)CC1` (stereo partly drawn) [Example 111, 3-(4-((R)-3-(4-(1-(4-((5-bromo-4-((2-(1-oxidophospholan-1-yl)phenyl)amino)pyrimidin-2-yl)amino)-2-ethyl-5-methoxyphenyl)piperidin-4-yl)piperazine-1-carbonyl)pyrrolidin-1-yl)-2,6-difluorophenyl)piperidine-2,6-dione]: in assay [1], the DC50 came out at 4.31 nM and the “Dmax H1975 #28” value was 87.16%. Also, in assay [2], the DC50 came out at 26.8 nM and the maximal degradation (Dmax) stood at 90.3%.

In the case of `CCc1cc(Nc2ncc(Br)c(Nc3ccccc3P3(=O)CCCC3)n2)c(OC)cc1N1CCC(N2CCN(C(=O)C3CN(c4cc(F)c(C5CCC(=O)NC5=O)c(F)c4)C3)CC2)CC1` (stereo not shown) [Example 148, 3-(4-(3-(4-(1-(4-((5-bromo-4-((2-(1-oxidophospholan-1-yl)phenyl)amino)pyrimidin-2-yl)amino)-2-ethyl-5-methoxyphenyl)piperidin-4-yl)piperazine-1-carbonyl)azetidin-1-yl)-2,6-difluorophenyl)piperidine-2,6-dione], in assay [1], the half-maximal degradation concentration (DC50) is 2.99 nM and the “Dmax H1975 #28” value stood at 78.19%. In assay [2], this molecule registered a 50% degradation concentration (DC50) of 19.8 nM and a maximal degradation (Dmax) of 90.2%.

As for `CCc1cc(Nc2ncc(Br)c(Nc3ccc4nc(C)ccc4c3P3(=O)CCCC3)n2)c(OC)cc1N1CCC(N2CCN(CCc3cccc4c3n(C)c(=O)n4C3CCC(=O)NC3=O)CC2)CC1` (stereo not shown) [Example 68, 3-(4-(2-(4-(1-(4-((5-bromo-4-((2-methyl-5-(1-oxidophospholan-1-yl)quinolin-6-yl)amino)pyrimidin-2-yl)amino)-2-ethyl-5-methoxyphenyl)piperidin-4-yl)piperazin-1-yl)ethyl)-3-methyl-2-oxo-2,3-dihydro-1H-benzo[d]imidazol-1-yl)piperidine-2,6-dione], in assay [1], the DC50 turned out to be 1.34 nM and the “Dmax H1975 #28” value is on record as 85.88%. In assay [2], the 50% degradation concentration (DC50) was determined as 3.46 nM and the maximal degradation (Dmax) was 90.8%.

`CCc1cc(Nc2ncc(Br)c(Nc3ccc4nc(C)ccc4c3P3(=O)CCCC3)n2)c(OC)cc1N1CCC(N2CCN(CCc3ccc4c(c3)oc(=O)n4C3CCC(=O)NC3=O)CC2)CC1` (stereo not shown) [Example 71, 3-(6-(2-(4-(1-(4-((5-bromo-4-((2-methyl-5-(1-oxidophospholan-1-yl)quinolin-6-yl)amino)pyrimidin-2-yl)amino)-2-ethyl-5-methoxyphenyl)piperidin-4-yl)piperazin-1-yl)ethyl)-2-oxobenzo[d]oxazol-3(2H)-yl)piperidine-2,6-dione]: in assay [1], the DC50 was 1.38 nM and the “Dmax H1975 #28” value is listed as 72.97%. In assay [2], this molecule registered a DC50 of 2.51 nM and a maximal degradation (Dmax) of 88.6%.

`CCc1cc(Nc2ncc(Br)c(Nc3ccc4nc(C)ccc4c3P3(=O)CC=CC3)n2)c(OC)cc1N1CCC(N2CCN(CCc3ccc4c(c3)oc(=O)n4C3CCC(=O)NC3=O)CC2)CC1` (stereo not shown) [Example 145, 3-(6-(2-(4-(1-(4-((5-bromo-4-((2-methyl-5-(1-oxido-2,5-dihydrophosphol-1-yl)quinolin-6-yl)amino)pyrimidin-2-yl)amino)-2-ethyl-5-methoxyphenyl)piperidin-4-yl)piperazin-1-yl)ethyl)-2-oxobenzo[d]oxazol-3(2H)-yl)piperidine-2,6-dione]: in assay [1], the half-maximal degradation concentration (DC50) was found to be 0.77 nM and the “Dmax H1975 #28” value worked out at 75.97%. Also, in assay [2], the 50% degradation concentration (DC50) stood at 1.82 nM and the maximal degradation (Dmax) stood at 91.8%.

For the molecule `CCc1cc(Nc2ncc(Br)c(Nc3ccccc3P3(=O)CCCC3)n2)c(OC)cc1N1CCC(N2CCN(CCc3cc(F)c(C4CCC(=O)NC4=O)c(F)c3)CC2)CC1` (stereo not shown) [Example 147, 3-(4-(2-(4-(1-(4-((5-bromo-4-((2-(1-oxidophospholan-1-yl)phenyl)amino)pyrimidin-2-yl)amino)-2-ethyl-5-methoxyphenyl)piperidin-4-yl)piperazin-1-yl)ethyl)-2,6-difluorophenyl)piperidine-2,6-dione], in assay [1], it took 3.15 nM to reach half-maximal degradation (DC50) and the “Dmax H1975 #28” value came out at 82.21%. Moreover, in assay [2], the DC50 turned out to be 75.1 nM and the greatest degradation seen (Dmax) came to 86.6%.

Source of the values: US20240131167A1, “EGFR Degraders and Associated Methods of Use” (BeiGene Switzerland GmbH, priority 2021, published 2024).
